The source of these data is patent US20100087411A1, “SUBSTITUTED SAPOGENINS AND THEIR USE” (Phytopharm PLC, priority 2000, published 2010).

Structures are written as SMILES.

The subject of this test is m2 receptor. As to the kind of experiment: Expression of m2 receptors on CHO cells transfected with DNA for the m2 receptor (tritiated QNB binding). The test is classed as cell-based. More on the design: key: Active: “active” means increase over the control; Inactive: “inactive” means same effect as control. The conditions noted are these: DMSO control, range of final concentrations. From the text:
Substituted sapogenins of the present invention have also been tested for activity in a number of in-vitro assays. The assays/experiments that were considered of key importance in determining possible activity in the elevation of membrane bound receptor numbers were as follows: • Chinese hamster ovary (CHO) cells transfected with the a DNA fragment coding for a muscarinic receptor. The cell line used for the majority of the experiments was a cell line expressing the m2 receptor. The methods and the results of these experiments are now described in turn.
The effects of various compounds on the expression of m2 receptors on CHO cells transfected with DNA for the m2 receptor were investigated. Receptor numbers were assayed using tritiated QNB binding and subtracting non-specific binding. Compounds were dissolved in DMSO and DMSO was used as a control. Compounds were tested at a range of final concentrations. Compounds were also tested in the presence and absence of tamoxifen to try to distinguish an oestrogen receptor mediated mechanism The results are summarised in the Table I below.
As for `C[C@H]1[C@H]2[C@H](C[C@H]3[C@@H]4CC[C@@H]5C[C@@H](O)CC[C@]5(C)[C@H]4CC[C@]23C)O[C@]12CCC(C)(C)CO2` [25-methyl-5β,20α,22α-spirostane-3β-ol], the “Effect on receptor expression” value is “Active”.
Consider `CC1CCC2(OC1)OC1CC3C4CCC5CC(N=[N+]=[N-])CCC5(C)C4CCC3(C)C1C2C` (stereo not drawn) [3α-azido-5β,20α,22α,25R-spirostane], for which the “Effect on receptor expression” value was “Active”.
To `C[C@@H]1CC[C@@]2(OC1)O[C@H]1C[C@H]3[C@@H]4CC[C@@H]5CC(F)(F)CC[C@]5(C)[C@H]4CC[C@]3(C)[C@H]1[C@@H]2C` [3,3-difluoro-5β,20α,22α,25R-spirostane] belongs “Active”; to `C[C@@H]1CC[C@@]2(OC1)O[C@H]1C[C@H]3[C@@H]4CC[C@H]5C[C@H](F)CC[C@]5(C)[C@H]4CC[C@]3(C)[C@H]1[C@@H]2C` [3α-fluoro-5α,20α,22α,25R-spirostane], “Inactive”.
Take `C[C@@H]1CC[C@@]2(OC1)O[C@H]1C[C@H]3[C@@H]4CC[C@@H]5C[C@H](N)CC[C@]5(C)[C@H]4CC[C@]3(C)[C@H]1[C@@H]2C` [3α-amino-5β,20α,22α,25R-spirostane]: the “Effect on receptor expression” value is “Active”.
Turning to `C[C@@H]1CC[C@@]2(OC1)O[C@H]1C[C@H]3[C@@H]4CC[C@@H]5C[C@@H](F)CC[C@]5(C)[C@H]4CC[C@]3(C)[C@H]1[C@@H]2C` [3β-fluoro-5β,20α,22α,25R-spirostane], the “Effect on receptor expression” value is recorded as “Active”.
With `C[C@@H]1CC[C@@]2(OC1)O[C@H]1C[C@H]3[C@@H]4CC[C@@H]5C[C@H](NS(C)(=O)=O)CC[C@]5(C)[C@H]4CC[C@]3(C)[C@H]1[C@@H]2C` [3α-methylsulphonylamino-5β,20α,22α,25R-spirostane] the entry was “Active”.
